From patent US9125407B2, “Compositions comprising an aryl pyrazole and a substituted imidazole, methods and uses thereof” (MERIAL LIMITED, priority 2011, dated 2015)

How the values were obtained:
[1] = system: Rhipicephalus sanguineus; assay: Tick contact behavioral assay (TCBA), excitatory response in glass vials; settings: 24 h post-treatment
Description: Another screening method used to test compounds of the present invention is the tick contact behavioral assay (TCBA). Compounds that elicit excitatory activity in ticks should increase their motility, thus increasing the parasite's chances of encountering fipronil if fipronil is present.
The TCBA was performed on Rhipicephalus sanguineus in glass vials. Briefly, a paper disc is treated with the desired amount of test compound and placed into the vial with approximately ten ticks. The ticks are observed for excitatory response but are not otherwise stimulated for evaluation.
From these observations, an EC50 for excitatory response is established. Observations were made at 4 h and 24 h post-treatment. […]

[2] = system: Rhipicephalus sanguineus; assay: Tick mortality in combination with fipronil (25 ppm), 100% mortality at 6 hours; settings: dose of compound combined with fipronil 25 ppm producing 100% mortality in 6 hours
Description: Observations were made at 4 h and 24 h post-treatment.
The compounds were then combined with fipronil (25 ppm) and tested for 100% mortality at 6 hours.

[3] = pH about 5.0 to about 6.0; cited from earlier work
[4] = 14C radiolabeled drug, spot-on, beagle dogs; cited from earlier work

SMILES	TCBA Assay EC50 (@ 24 h, ppm) [1]	Fipronil combination (25 ppm) (6 h mortality) Dose (ppm) [2]	stability at pH of about 5.0 to about 6.0 [3]	time persistently detected in whole skin after treatment [4]
Cc1cccc(C(C)c2ncc[nH]2)c1C (centres unmarked) [demiditraz]	5 ppm	12.5 ppm		
Cc1cccc2c1C(c1ncc[nH]1)CC2 (centres unmarked) [1H-imidazole, 2-(2,3-dihydro-7-methyl-1H-inden-1-yl)]	6 ppm			
Cc1cccc2c1CCCC2c1ncc[nH]1 (centres unmarked) [2-(5-methyl-1,2,3,4-tetrahydronaphthalen-1-yl)-1H-imidazole]	6 ppm	25 ppm		
Cc1ccc(/N=C/N(C)/C=N/c2ccc(C)cc2C)c(C)c1 [Amitraz, amitraz]	1.6 ppm	12.5 ppm	degrade	
N#Cc1nn(-c2c(Cl)cc(C(F)(F)F)cc2Cl)c(N)c1[S+]([O-])C(F)(F)F (centres unmarked) [fipronil, 5-amino-3-cyano-1-(2,6-dichloro-4-trifluoromethylphenyl)-4-trifluoromethylsulfinylpyrazole]				up to 56 days
Cc1cccc2c1CCC2c1ncc[nH]1 (centres unmarked) [ML-449, 1H-imidazole, 2-(2,3-dihydro-4-methyl-1H-inden-1-yl)]	6 ppm	25 ppm		
